Results from the supplement of paper PMC8612539.
≈ marks a conversion by molar mass, not a printed value.

Test system: Escherichia coli
Experiment: minimum inhibitory concentration (MIC)
Method: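 Broth microdilution MIC (Sensititre BOPO7F bovine plate, CLSI methods) of 19 antimicrobials against field isolates of P. multocida, M. haemolytica, H. somni (deep nasopharyngeal swabs) and E. coli, Enterococcus spp. (rectal swabs) from weaned dairy heifers. Incubation 16-24 h at 35 C. MIC is the lowest concentration preventing visible growth. Values with <= or > lie at the tested range limits. Trimethoprim-sulfamethoxazole is given as the trimethoprim component of a 1:19 mixture.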

CC1(C)S[C@@H]2[C@H](NC(=O)[C@H](N)c3ccccc3)C(=O)N2[C@H]1C(=O)O [Ampicillin]
Settings | minimum inhibitory concentration [µg/mL]
isolate (source animal id): 8 | 4 (≈ 11.4 µM)
isolate (source animal id): 9 | > 16
isolate (source animal id): 10 | 2 (≈ 5.72 µM)
isolate (source animal id): 11 | 4 (≈ 11.4 µM)
isolate (source animal id): 12 | > 16
isolate (source animal id): 13 | > 16
isolate (source animal id): 14 | > 16
isolate (source animal id): 15 | 2 (≈ 5.72 µM)
isolate (source animal id): 16 | 4 (≈ 11.4 µM)
isolate (source animal id): 98 | 4 (≈ 11.4 µM)
isolate (source animal id): 99 | 4 (≈ 11.4 µM)
isolate (source animal id): 100 | 2 (≈ 5.72 µM)
isolate (source animal id): 101 | 1 (≈ 2.86 µM)
isolate (source animal id): 102 | 2 (≈ 5.72 µM)
isolate (source animal id): 103 | > 16
isolate (source animal id): 104 | 4 (≈ 11.4 µM)
isolate (source animal id): 105 | 4 (≈ 11.4 µM)
isolate (source animal id): 106 | 2 (≈ 5.72 µM)
isolate (source animal id): 107 | 2 (≈ 5.72 µM)
isolate (source animal id): 108 | 4 (≈ 11.4 µM)
isolate (source animal id): 109 | 2 (≈ 5.72 µM)
isolate (source animal id): 110 | 4 (≈ 11.4 µM)
isolate (source animal id): 111 | 2 (≈ 5.72 µM)
isolate (source animal id): 112 | 2 (≈ 5.72 µM)
isolate (source animal id): 113 | 4 (≈ 11.4 µM)
isolate (source animal id): 114 | 4 (≈ 11.4 µM)
isolate (source animal id): 115 | > 16
isolate (source animal id): 116 | 2 (≈ 5.72 µM)
isolate (source animal id): 117 | 2 (≈ 5.72 µM)
isolate (source animal id): 118 | 4 (≈ 11.4 µM)
isolate (source animal id): 119 | 8 (≈ 22.9 µM)
isolate (source animal id): 120 | > 16
isolate (source animal id): 121 | 2 (≈ 5.72 µM)
isolate (source animal id): 122 | 1 (≈ 2.86 µM)
isolate (source animal id): 123 | 2 (≈ 5.72 µM)
isolate (source animal id): 124 | 4 (≈ 11.4 µM)
isolate (source animal id): 125 | 2 (≈ 5.72 µM)
isolate (source animal id): 126 | 8 (≈ 22.9 µM)
isolate (source animal id): 127 | 2 (≈ 5.72 µM)
isolate (source animal id): 128 | > 16
isolate (source animal id): 129 | 4 (≈ 11.4 µM)
isolate (source animal id): 130 | 4 (≈ 11.4 µM)
isolate (source animal id): 131 | 2 (≈ 5.72 µM)
isolate (source animal id): 132 | > 16
isolate (source animal id): 133 | 4 (≈ 11.4 µM)
isolate (source animal id): 134 | 4 (≈ 11.4 µM)
isolate (source animal id): 135 | 2 (≈ 5.72 µM)
isolate (source animal id): 136 | 4 (≈ 11.4 µM)
isolate (source animal id): 137 | 4 (≈ 11.4 µM)
isolate (source animal id): 138 | 4 (≈ 11.4 µM)
isolate (source animal id): 139 | 1 (≈ 2.86 µM)
isolate (source animal id): 140 | 4 (≈ 11.4 µM)
isolate (source animal id): 141 | 4 (≈ 11.4 µM)
isolate (source animal id): 142 | 4 (≈ 11.4 µM)
isolate (source animal id): 143 | > 16
isolate (source animal id): 144 | > 16
isolate (source animal id): 145 | 8 (≈ 22.9 µM)
isolate (source animal id): 146 | 2 (≈ 5.72 µM)
isolate (source animal id): 147 | > 16
isolate (source animal id): 148 | 2 (≈ 5.72 µM)
isolate (source animal id): 149 | 2 (≈ 5.72 µM)
isolate (source animal id): 150 | 4 (≈ 11.4 µM)
isolate (source animal id): 151 | 1 (≈ 2.86 µM)
isolate (source animal id): 152 | 2 (≈ 5.72 µM)
isolate (source animal id): 153 | > 16
isolate (source animal id): 154 | 4 (≈ 11.4 µM)
isolate (source animal id): 155 | 2 (≈ 5.72 µM)
isolate (source animal id): 156 | > 16
isolate (source animal id): 157 | 4 (≈ 11.4 µM)
isolate (source animal id): 158 | 4 (≈ 11.4 µM)
isolate (source animal id): 159 | 2 (≈ 5.72 µM)
isolate (source animal id): 160 | 4 (≈ 11.4 µM)
isolate (source animal id): 161 | 2 (≈ 5.72 µM)
isolate (source animal id): 162 | > 16
isolate (source animal id): 163 | 4 (≈ 11.4 µM)
isolate (source animal id): 164 | 4 (≈ 11.4 µM)
isolate (source animal id): 165 | 2 (≈ 5.72 µM)
isolate (source animal id): 166 | 2 (≈ 5.72 µM)
isolate (source animal id): 167 | 4 (≈ 11.4 µM)
isolate (source animal id): 168 | 2 (≈ 5.72 µM)
isolate (source animal id): 169 | 4 (≈ 11.4 µM)
isolate (source animal id): 170 | 4 (≈ 11.4 µM)
isolate (source animal id): 171 | 4 (≈ 11.4 µM)
isolate (source animal id): 172 | 2 (≈ 5.72 µM)
isolate (source animal id): 173 | > 16
isolate (source animal id): 174 | > 16
isolate (source animal id): 175 | 4 (≈ 11.4 µM)
isolate (source animal id): 176 | > 16
isolate (source animal id): 177 | > 16
isolate (source animal id): 178 | 4 (≈ 11.4 µM)
isolate (source animal id): 179 | 4 (≈ 11.4 µM)
isolate (source animal id): 180 | 4 (≈ 11.4 µM)
isolate (source animal id): 181 | 2 (≈ 5.72 µM)
isolate (source animal id): 182 | 2 (≈ 5.72 µM)
isolate (source animal id): 183 | 4 (≈ 11.4 µM)
isolate (source animal id): 184 | 4 (≈ 11.4 µM)
isolate (source animal id): 185 | 4 (≈ 11.4 µM)
isolate (source animal id): 186 | 4 (≈ 11.4 µM)
isolate (source animal id): 187 | > 16
isolate (source animal id): 188 | > 16
